According to patent US20260226068A1, “IMIDAZOTRIAZINE IL-17A MODULATORS AND USES THEREOF” (DICE ALPHA, INC., priority 2023, published 2026):

What was measured:
[1] = target: T1, IL-17A/F (Homo sapiens, UniProt Q16552+Q96PD4); assay: IL-17A/F HEK-Blue cell assay (SEAP reporter); format: cell-based; conditions: HEK-Blue IL-17A reporter cells, IL17A/F 5 ng/mL, 20 hours, SEAP read at A630; read-out: HEK-Blue IL17AF (IC50 for IL-17A/F inhibition)
T1 construct: purchased R&D Systems
T1 sequence (Q16552 24-155): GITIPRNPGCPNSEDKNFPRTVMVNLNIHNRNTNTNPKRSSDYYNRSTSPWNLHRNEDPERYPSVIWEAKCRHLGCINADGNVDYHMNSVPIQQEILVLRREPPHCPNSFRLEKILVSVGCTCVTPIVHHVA
T1 sequence (Q96PD4 31-163): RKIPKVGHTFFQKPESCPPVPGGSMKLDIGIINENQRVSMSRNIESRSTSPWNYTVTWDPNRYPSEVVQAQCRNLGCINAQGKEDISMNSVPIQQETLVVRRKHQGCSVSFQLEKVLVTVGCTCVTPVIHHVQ

[2] = target: T2, IL-17A/A (Homo sapiens, UniProt Q16552); assay: IL-17A/A HEK-Blue cell assay (SEAP reporter); format: cell-based; conditions: HEK-Blue IL-17A reporter cells, IL17A/A 5 ng/mL, 20 hours, SEAP read at A630; read-out: HEK-Blue IL17AA (IC50 for IL-17A/A inhibition)
T2 construct: purchased Genscript Z03228
T2 sequence (Q16552 24-155): T1 sequence (Q16552 24-155)

SMILES	IC50 [1]	IC50 [2]
CCn1nccc1C(=O)N[C@H](c1cn2nc(CC3C[C@@H](C(F)(F)F)CNC3=O)c(N3CC4CC(C3)O4)nc2n1)[C@H]1CC[C@H](C)CC1 (single isomer, unassigned) [Compound 102]	< 100 nM	< 100 nM
CCn1nccc1C(=O)N[C@H](c1cn2nc(CC3C[C@@H](C(F)(F)F)CNC3=O)c(N3C[C@H]4CC[C@@H](C3)O4)nc2n1)C1CCC(F)(F)CC1 (single isomer, unassigned) [Compound 83]	100 to 1000 nM	< 100 nM
CCn1nccc1C(=O)N[C@H](c1cn2nc(C[C@H]3C[C@@H](C(F)(F)F)CNC3=O)c(N3CCN(C(C)(C)C)CC3)nc2n1)C1CCC(F)(F)CC1 [Compound 242, N—((S)-(3-(4-(tert-butyl)piperazin-1-yl)-2-(((3R,5R)-2-oxo-5-(trifluoromethyl)piperidin-3-yl)methyl)imidazo[1,2-b][1,2,4]triazin-6-yl)(4,4-difluorocyclohexyl)methyl)-1-ethyl-1H-pyrazole-5-carboxamide]	100 to 1000 nM	< 100 nM
CC(C)c1nocc1C(=O)N[C@H](c1cn2nc(C[C@H]3C[C@@H](C(F)(F)F)CNC3=O)cnc2n1)C1CCC(F)(F)CC1 [Compound 32]	> 1000 nM	100 to 1000 nM
CCn1nccc1C(=O)N[C@H](c1cn2nc(C[C@@H]3C[C@@H](C(F)(F)F)CNC3=O)cnc2n1)[C@H]1CC[C@H](C)CC1 [Compound 25]	> 1000 nM	100 to 1000 nM
CCn1nccc1C(=O)N[C@H](c1cn2nc(CN3CC(F)(F)CNC3=O)c(C3CCOCC3)nc2n1)C1CCC(F)(F)CC1 [Compound 435]	> 1000 nM	100 to 1000 nM
CCn1nccc1C(=O)N[C@H](c1cn2nc(CC3C[C@@H](C(F)(F)F)CNC3=O)c(N3C[C@H]4C[C@@H]3CO4)nc2n1)C1CCC(F)(F)CC1 (single isomer, unassigned) [Compound 85]	> 1000 nM	100 to 1000 nM
CCn1nccc1C(=O)N[C@H](c1cn2nc(C[C@H]3C[C@@H](C(F)(F)F)CNC3=O)c(C(C)(F)F)nc2n1)C1CCC(F)(F)CC1 [Compound 273, N—((S)-(4,4-difluorocyclohexyl)(3-(1,1-difluoroethyl)-2-(((3R,5R)-2-oxo-5-(trifluoromethyl)piperidin-3-yl)methyl)imidazo[1,2-b][1,2,4]triazin-6-yl)methyl)-1-ethyl-1H-pyrazole-5-carboxamide]	> 1000 nM	< 100 nM
CC(C)n1nccc1C(=O)N[C@H](c1cn2nc(CC3C[C@@H](C(F)(F)F)CNC3=O)c(N3CC4CC(C3)O4)nc2n1)[C@@H]1CCCC(F)(F)C1 (single isomer, unassigned) [Compound 131]	> 1000 nM	< 100 nM
CCn1nccc1C(=O)N[C@H](c1cn2nc(CC3C[C@@H](C(F)(F)F)CNC3=O)c(N3CCO[C@@H](C)C3)nc2n1)[C@@H]1CCCC(F)(F)C1 (single isomer, unassigned) [Compound 207]	100 to 1000 nM	< 100 nM

Second part, the compound after the results:

IC50 [1]	IC50 [2]	SMILES
100 to 1000 nM	< 100 nM	O=C(N[C@H](c1cn2nc(C[C@H]3C[C@@H](C(F)(F)F)CNC3=O)c(C3CCOCC3)nc2n1)C1CCC(F)(F)CC1)c1nonc1OCC(F)(F)F [Compound 372, N—((S)-(4,4-difluorocyclohexyl)(2-(((3R,5R)-2-oxo-5-(trifluoromethyl)piperidin-3-yl)methyl)-3-(tetrahydro-2H-pyran-4-yl)imidazo[1,2-b][1,2,4]triazin-6-yl)methyl)-4-(2,2,2-trifluoroethoxy)-1,2,5-oxadiazole-3-carboxamide]
< 100 nM	< 100 nM	C[C@@H]1CN(c2nc3nc([C@@H](NC(=O)c4ccnn4C)[C@@H]4CCCC(F)(F)C4)cn3nc2C[C@H]2C[C@@H](C(F)(F)F)CNC2=O)CCO1 [Compound 307, N—((S)—((R)-3,3-difluorocyclohexyl)(3-((R)-2-methylmorpholino)-2-(((3R,5R)-2-oxo-5-(trifluoromethyl)piperidin-3-yl)methyl)imidazo[1,2-b][1,2,4]triazin-6-yl)methyl)-1-methyl-1H-pyrazole-5-carboxamide]
< 100 nM	< 100 nM	CC(C)n1nccc1C(=O)N[C@H](c1cn2nc(CC3C[C@@H](C(F)(F)F)CNC3=O)c(N3CCOCC3)nc2n1)[C@H]1CC[C@H](C)CC1 (single isomer, unassigned) [Compound 100]
100 to 1000 nM	< 100 nM	CCn1nccc1C(=O)N[C@H](c1cn2nc(C[C@@H]3CC4(CC4)CNC3=O)c(C3CCOCC3)nc2n1)C1CCC(F)(F)CC1 [Compound 424]
100 to 1000 nM	< 100 nM	Cn1nccc1C(=O)N[C@H](c1cn2nc(C[C@H]3C[C@@H](C(F)(F)F)CNC3=O)c([C@@H]3CCCOC3)nc2n1)C1CCC(F)(F)CC1 (single isomer, unassigned) [Compound 264]
100 to 1000 nM	< 100 nM	CCn1nccc1C(=O)N[C@H](c1cn2nc(C[C@H]3C[C@@H](C(F)(F)F)CNC3=O)c([C@@H]3CCC(C)(C)OC3)nc2n1)C1CCC(F)(F)CC1 (single isomer, unassigned) [Compound 256]
> 1000 nM	100 to 1000 nM	CCn1nccc1C(=O)N[C@H](c1cn2nc(C[C@H]3C[C@@H](C(F)(F)F)CNC3=O)c(CC3COCCO3)nc2n1)C1CCC(F)(F)CC1 (stereo partly drawn) [Compound 173, N-((1S)-(3-((1,4-dioxan-2-yl)methyl)-2-(((3R,5R)-2-oxo-5-(trifluoromethyl)piperidin-3-yl)methyl)imidazo[1,2-b][1,2,4]triazin-6-yl)(4,4-difluorocyclohexyl)methyl)-1-ethyl-1H-pyrazole-5-carboxamide]
> 1000 nM	< 100 nM	Cc1nonc1C(=O)N[C@H](c1cn2nc(C[C@H]3C[C@@H](C(F)(F)F)CNC3=O)c(C3CCOCC3)nc2n1)C1CC2(C1)CC(F)(F)C2 [Compound 314, N—((S)-(6,6-difluorospiro[3.3]heptan-2-yl)(2-(((3R,5R)-2-oxo-5-(trifluoromethyl)piperidin-3-yl)methyl)-3-(tetrahydro-2H-pyran-4-yl)imidazo[1,2-b][1,2,4]triazin-6-yl)methyl)-4-methyl-1,2,5-oxadiazole-3-carboxamide]
> 1000 nM	< 100 nM	O=C(N[C@H](c1cn2nc(C[C@H]3C[C@@H](C(F)(F)F)CNC3=O)c(C3CCOCC3)nc2n1)C1CCC(F)(F)CC1)c1ccnn1C(F)(F)F [Compound 184, N-((1S)-(4,4-difluorocyclohexyl)(2-(((3R,5R)-2-oxo-5-(trifluoromethyl)piperidin-3-yl)methyl)-3-(tetrahydro-2H-pyran-4-yl)imidazo[1,2-b][1,2,4]triazin-6-yl)methyl)-1-(trifluoromethyl)-1H-pyrazole-5-carboxamide]
> 1000 nM	< 100 nM	Cc1nonc1C(=O)N[C@H](c1cn2nc(C[C@H]3C[C@@H](C(F)(F)F)CNC3=O)c(N3CCN(C)CC3)nc2n1)C1CCC(F)(F)CC1 [Compound 311, N—((S)-(4,4-difluorocyclohexyl)(3-(4-methylpiperazin-1-yl)-2-(((3R,5R)-2-oxo-5-(trifluoromethyl)piperidin-3-yl)methyl)imidazo[1,2-b][1,2,4]triazin-6-yl)methyl)-4-methyl-1,2,5-oxadiazole-3-carboxamide]
